Source: ChEMBL document CHEMBL4837244 (ACS Med Chem Lett, 2021)

Tests used:
Assay type in all cases: ADME, Microsome
[1] = Metabolic stability in mouse liver microsomes assessed as parent compound remaining at 0.1 uM in presence of NADPH by LC-MS/MS analysis; conditions: read-out: Stabilty
[2] = Metabolic stability in rat liver microsomes assessed as parent compound remaining at 0.1 uM in presence of NADPH by LC-MS/MS analysis; conditions: read-out: Stabilty
[3] = Metabolic stability in human liver microsomes assessed as parent compound remaining at 0.1 uM in presence of NADPH by LC-MS/MS analysis

SMILES	remaining at 0.1 µM [1] [%]	remaining at 0.1 µM [2] [%]	Stabilty [3]
CCOC(=O)c1ccc(CCN2CCC(Nc3nc4ccccc4n3Cc3ccc(C#N)cc3)CC2)cc1	< 45	< 45	Unstable
O=C(c1ccc(CCN2CCC(Nc3nc4ccccc4n3Cc3ccc(F)cc3)CC2)cc1)N1CCNCC1	< 45	< 45	Unstable
N#Cc1ccc(CCN2CCC(Nc3nc4ccccc4n3Cc3ccc(C#N)c(F)c3)CC2)cc1	< 45	< 45	Unstable
N#Cc1ccc(CCN2CCC(Nc3nc4ccccc4n3Cc3ccc(C(F)(F)F)nc3)CC2)cc1	< 45	< 45	Unstable
N#Cc1ccc(Cn2c(NC3CCN(CCc4ccc(C(F)(F)F)cc4)CC3)nc3ccccc32)cc1	< 45	< 45	Unstable
